Results from ChEMBL document CHEMBL1142568, “Cytotoxic hydroxylated triterpene alcohol ferulates from rice bran” (J Nat Prod, 2005).

Test system: MCF7
Assay: Cytotoxicity against human MCF7 cells after 72 hrs by MTT assay
Type: functional, cell-based
Settings: MCF7, 72 h

SMILES	IC50 [µM]
C=C(CC[C@@H](C)[C@H]1CC[C@@]2(C)[C@@H]3CC[C@H]4C(C)(C)[C@@H](OC(=O)/C=C/c5ccc(O)c(OC)c5)CC[C@@]45C[C@@]35CC[C@]12C)C(C)C	27
COc1cc(/C=C/C(=O)O[C@H]2CC[C@]34C[C@]35CC[C@]3(C)[C@@H]([C@H](C)C/C=C\C(C)(C)O)CC[C@@]3(C)[C@@H]5CC[C@H]4C2(C)C)ccc1O	79
C=C(C)[C@@H](O)CC[C@@H](C)[C@H]1CC[C@@]2(C)[C@@H]3CC[C@H]4C(C)(C)[C@@H](OC(=O)/C=C/c5ccc(O)c(OC)c5)CC[C@@]45C[C@@]35CC[C@]12C	283
C=C(C)[C@H](O)CC[C@@H](C)[C@H]1CC[C@@]2(C)[C@@H]3CC[C@H]4C(C)(C)[C@@H](OC(=O)/C=C/c5ccc(O)c(OC)c5)CC[C@@]45C[C@@]35CC[C@]12C	42
COc1cc(/C=C/C(=O)O[C@H]2CC[C@]34C[C@]35CC[C@]3(C)[C@@H]([C@H](C)CCC=C(C)C)CC[C@@]3(C)[C@@H]5CC[C@H]4C2(C)C)ccc1O [GAMMA ORYZANOL]	80
